Reference: patent publication US10167279B2 (NOVARTIS AG, priority 2014, dated 2019)

target: C-Raf FL (Homo sapiens (Human), UniProt P04049, Y340E/Y341E); assay: In vitro Raf activity determination (Alpha Screen, phospho-MEK), C-Raf FL (full length, Y340E/Y341E); type: biochemical; conditions: ATP 1 μM; 60 min pre-incubation; 1 hour reaction; column head does not say FL or TR
In short: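 Sf9-expressed C-Raf incubated with biotinylated kinase-dead MEK1 (K97R) in 50 mM Tris pH 7.5, 15 mM MgCl2, 0.01% BSA, 1 mM DTT with compound, 60 min at room temperature. Phospho-MEK detected by anti-p-MEK AlphaScreen luminescence; IC50 by non-linear regression.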

Chain of C-Raf FL (P04049 whole entry Y340E/Y341E): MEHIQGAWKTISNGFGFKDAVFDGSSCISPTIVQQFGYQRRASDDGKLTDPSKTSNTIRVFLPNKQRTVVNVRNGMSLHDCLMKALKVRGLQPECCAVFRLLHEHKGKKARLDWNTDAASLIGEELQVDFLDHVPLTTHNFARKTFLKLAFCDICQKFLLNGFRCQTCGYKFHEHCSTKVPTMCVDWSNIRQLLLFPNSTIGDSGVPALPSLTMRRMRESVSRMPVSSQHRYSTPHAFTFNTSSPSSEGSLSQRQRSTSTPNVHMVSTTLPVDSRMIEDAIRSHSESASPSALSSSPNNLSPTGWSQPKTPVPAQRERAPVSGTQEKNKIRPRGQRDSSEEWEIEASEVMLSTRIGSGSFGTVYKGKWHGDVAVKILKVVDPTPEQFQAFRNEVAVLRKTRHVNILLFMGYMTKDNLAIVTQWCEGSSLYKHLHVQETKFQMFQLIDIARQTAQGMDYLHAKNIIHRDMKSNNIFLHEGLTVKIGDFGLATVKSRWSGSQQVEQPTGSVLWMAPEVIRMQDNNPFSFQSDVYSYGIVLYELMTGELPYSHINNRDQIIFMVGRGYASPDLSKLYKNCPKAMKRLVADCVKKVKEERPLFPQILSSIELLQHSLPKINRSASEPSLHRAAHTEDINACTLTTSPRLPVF
Chain of C-Raf FL (P63104 whole entry partner): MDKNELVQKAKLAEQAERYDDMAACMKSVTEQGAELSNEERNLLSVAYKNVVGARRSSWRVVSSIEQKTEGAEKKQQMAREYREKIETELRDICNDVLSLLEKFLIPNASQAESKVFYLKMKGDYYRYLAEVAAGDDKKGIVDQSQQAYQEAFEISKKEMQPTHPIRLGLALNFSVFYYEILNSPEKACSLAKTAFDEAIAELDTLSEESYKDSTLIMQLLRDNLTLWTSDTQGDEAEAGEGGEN

IC50 [nM]	SMILES
0.331	Cc1ccc(NC(=O)c2ccnc(C(F)(F)F)c2)cc1-c1cc(OCCO)nc(C2(O)CCOCC2)c1 [Example 305, N-(3-(2-(2-hydroxyethoxy)-6-(4-hydroxytetra-hydro-2H-pyran-4-yl)pyridin-4-yl)-4-methylphenyl)-2-(trifluoro-methyl) isonicotinamide]
0.2	Cc1ccc(NC(=O)c2ccnc(Cl)c2)cc1-c1cc(OCCO)nc(C2CCOCC2)c1 [Example 264, 2-chloro-N-(3-(2-(2-hydroxyethoxy)-6-(tetrahydro-2H-pyran-4-yl)pyridin-4-yl)-4-methylphenyl) isonicotinamide]
0.1	Cc1ccc(NC(=O)c2cc(C(F)(F)F)cn(C)c2=O)cc1-c1cc(OCCO)nc(C2CCOCC2)c1 [Example 253, N-(3-(2-(2-hydroxyethoxy)-6-(terahydro-2H-pyran-4-yl)pyridin-4-yl)-4-methylphenyl)-1-methyl-2-oxo-5-(trifluoromethyl)-1,2-dihydropyridine-3-carboxamide]
0.2	Cc1ccc(NC(=O)c2cnc(C(F)(F)F)cn2)cc1-c1cc(OC[C@H](O)CO)nc(C2CCOCC2)c1 [Example 277, (R)-N-(3-(2-(2,3-dihydroxypropoxy)-6-(tetrahydro-2H-pyran-4-yl)pyridin-4-yl)-4-methylphenyl)-5-(trifluoromethyl) pyrazine-2-carboxamide]
2	CCOc1ncc(-c2cc(NC(=O)c3ccnc(C(C)(C)C#N)c3)cnc2C)cc1C1(CF)CCOC1 (stereo not drawn) [Example 166, 2-(2-cyanopropan-2-yl)-N-(6′-ethoxy-5′-(3-(fluoromethyl)tetrahydrofuran-3-yl)-2-methyl-[3,3′-bipyridin]-5-yl)isonicotinamide]
0.3	Cc1ccc(NC(=O)c2ccnc(C(F)(F)F)n2)cc1-c1cc(OCCO)nc(C2CCOCC2)c1 [Example 254, N-(3-(2-(2-hydroxyethoxy)-6-(terahydro-2H-pyran-4-yl)pyridin-4-yl)-4-methylphenyl)-2-(trifluoromethyl) pyrimidine-4-carboxamide]
0.1	Cc1ccc(NC(=O)c2cnnc(C(F)(F)F)c2)cc1-c1cc2c(c(C3CCOCC3)c1)OC(C)(CO)C(=O)N2 (stereo not drawn) [Example 201, N-(3-(2-(hydroxymethyl)-2-methyl-3-oxo-8-(tetrahydro-2H-pyran-4-yl)-3,4-dihydro-2H-benzo[b][1,4]oxazin-6-yl)-4-methylphenyl)-6-(trifluoromethyl) pyridazine-4-carboxamide]
1	Cc1ncc(NC(=O)c2ccc(CN)c(C(F)(F)F)c2)cc1-c1cccc(C2(C)COC2)c1 [Example 8]
2.15	Cc1ncc(NC(=O)c2cccc(C(F)(F)F)c2)cc1-c1cc(OCCO)nc(C2(F)COC2)c1 [Example 52, N-(2′-(3-fluorooxetan-3-yl)-6′-(2-hydroxyethoxy)-2-methyl-[3,4′-bipyridin]-5-yl)-3-(trifluoromethyl)benzamide]
0.1	CCOc1nnc(-c2cc(NC(=O)NCCC(C)(C)C)ccc2C)cc1C1CCOCC1 [Example 318, 1-(3,3-dimethylbutyl)-3-(3-(6-ethoxy-5-(tetrahydro-2H-pyran-4-yl)pyridazin-3-yl)-4-methylphenyl)urea]
0.1	CCOc1nnc(-c2cc(NC(=O)c3cnnc(C(F)(F)F)c3)ccc2C)cc1C1CCOCC1 [Example 237, N-(5-(6-ethoxy-5-(tetrahydro-2H-pyran-4-yl)pyridazin-3-yl)-4-methylphenyl)-6-(trifluoromethyl) pyridazine-4-carboxamide]
0.03	CCOc1nnc(-c2cc(NC(=O)c3cc(C(F)(F)F)ncn3)ccc2C)cc1C1CCOCC1 [Example 232]
2	CCOc1ncc(-c2cc(NC(=O)c3cccc(C(F)(F)F)c3)cnc2C)cc1C1(CO)CCOC1 (stereo not drawn) [Example 290, N-(6′-ethoxy-5′-(3-(hydroxymethyl)tetrahydrofuran-3-yl)-2-methyl-[3,3′-bipyridin]-5-yl)-3-(trifluoromethyl) benzamide]
0.6	Cc1ncc(NC(=O)c2cccc(C(F)(F)F)c2)cc1-c1cc(C2(C)COC2)c(OC2CCOCC2)nn1 [Example 11]
0.02	Cc1ccc(NC(=O)c2cc(C(F)(F)F)cnn2)cc1-c1cc(OCCO)nc(C2CCOCC2)c1 [Example 258, N-(3-(2-(2-hydroxyethoxy)-6-(tetrahydro-2H-pyran-4-yl)pyridin-4-yl)-4-methylphenyl)-5-(trifluoromethyl) pyridazine-3-carboxamide]
0.09	Cc1ccc(NC(=O)c2ccnc(C(C)(C)C#N)c2)cc1-c1cc(OCCO)nc(C2CCOCC2)c1 [Example 270, 2-(2-cyanopropan-2-yl)-N-(3-(2-(2-hydroxyethoxy)-6-(tetrahydro-2H-pyran-4-yl)pyridin-4-yl)-4-methylphenyl) isonicotinamide]
0.83	Cc1ccc(NC(=O)c2cccc(C(F)(F)F)c2)cc1-c1cc(C2CCOCC2)nc(N2CCC(O)CC2)c1 [Example 186, N-(3-(2-(4-hydroxypiperidin-1-yl)-6-(tetrahydro-2H-pyran-4-yl)pyridin-4-yl)-4-methylphenyl)-3-(trifluoromethyl) benzamide]

IC50 [nM]	SMILES
0.393	Cc1ncc(NC(=O)c2ccnc(C(F)(F)F)c2)cc1-c1cc(NCCO)nc(C2CCOCC2)c1 [Example 181, N-(2′-((2-hydroxyethyl)amino)-2-methyl-6′-(tetrahydro-2H-pyran-4-yl)-[3,4′-bipyridin]-5-yl)-2-(trifluoromethyl) isonicotinamide]
1	Cc1ncc(NC(=O)c2ccnc(C(C)(C)F)c2)cc1-c1cccc(C2COC2)c1 [Example 1, 2-(2-fluoropropan-2-yl)-N-(6-methyl-5-(3-(oxetan-3-yl)phenyl)pyridin-3-yl)isonicotinamide]
0.3	Cc1ccc(NC(=O)c2cc(C(F)(F)F)ccn2)cc1-c1cc(OCCO)nc(C2(CF)CCOCC2)c1 [Example 214, N-(3-(2-(4-(fluoromethyl)tetrahydro-2H-pyran-4-yl)-6-(2-hydroxyethoxy)pyridin-4-yl)-4-methylphenyl)-4-(trifluoromethyl) picolinamide]
2.79	Cc1ncc(NC(=O)c2ccnc(C(F)(F)F)c2)cc1-c1cc(OCCO)nc(C2(F)COC2)c1 [Example 51, N-(2′-(3-fluorooxetan-3-yl)-6′-(2-hydroxyethoxy)-2-methyl-[3,4′-bipyridin]-5-yl)-2-(trifluoromethyl)isonicotin-amide]
0.1	Cc1ccc(NC(=O)c2cccc(C(F)(F)F)c2)cc1-c1cc(NCCO)nc(C2(O)COC2)c1 [Example 300, N-(3-(2-((2-hydroxyethyl)amino)-6-(3-hydroxyoxetan-3-yl)pyridin-4-yl)-4-methylphenyl)-3-(trifluoromethyl) benzamide]
0.331	CCC(F)(F)c1cc(C(=O)Nc2cnc(C)c(-c3cc(C4CCOCC4)nc(N4CCC(O)CC4)c3)c2)ccn1 [Example 185, 2-(1,1-difluoropropyl)-N-(2′-(4-hydroxypiperidin-1-yl)-2-methyl-6′-(tetrahydro-2H-pyran-4-yl)-[3,4′-bipyridin]-5-yl) isonicotinamide]
1	Cc1ncc(NC(=O)c2ccc(CO)c(C(F)(F)F)c2)cc1-c1cccc(C2COC2)c1 [Example 7]
0.83	Cc1ccc(NC(=O)c2ccnc(C(F)(F)F)c2)cc1-c1cc(OCCO)nc(C2(F)CCOCC2)c1 [Example 306, N-(3-(2-(4-fluorotetrahydro-2H-pyran-4-yl)-6-(2-hydroxy-ethoxy)pyridin-4-yl)-4-methyl-phenyl)-2-(trifluoromethyl) isonicotinamide]
1	Cc1ccc(NC(=O)c2ccnc(C(F)(F)F)c2)cc1-c1cc(OCCO)nc(C2CCOCC2O)c1 (single isomer, unassigned) [Example 250]
0.05	Cc1ccc(NC(=O)c2cncc(C(F)(F)F)c2)cc1-c1cc(OC[C@H](O)CO)nc(C2CCOCC2)c1 [Example 281, (R)-N-(3-(2-(2,3-dihydroxypropoxy)-6-(tetrahydro-2H-pyran-4-yl)pyridin-4-yl)-4-methylphenyl)-5-(trifluoromethyl) nicotinamide]
0.02	Cc1ccc(NC(=O)c2cnnc(C(F)(F)F)c2)cc1-c1cc(OCCO)nc(C2CCOCC2)c1 [Example 271, N-(3-(2-(2-hydroxyethoxy)-6-(tetrahydro-2H-pyran-4-yl)pyridin-4-yl)-4-methylphenyl)-6-(trifluoromethyl) pyridazine-4-carboxamide]
0.07	CCOc1nnc(-c2cc(NC(=O)c3ccnc(C(C)(C)F)c3)ccc2C)cc1C1CCOCC1 [Example 238, N-(3-(6-ethoxy-5-(tetrahydro-2H-pyran-4-yl)pyridazin-3-yl)-4-methylphenyl)-2-(2-fluoropropan-2-yl) isonicotinamide]
0.566	Cc1ccc(NC(=O)c2cccc(C(F)(F)F)c2)cc1-c1cc(C2(O)COC2)cc(C2(F)COC2)c1 [Example 134, N-(3′-(3-fluorooxetan-3-yl)-5′-(3-hydroxyoxetan-3-yl)-6-methyl-[1,1′-biphenyl]-3-yl)-3-(trifluoromethyl)benzamide]
0.0155	Cc1ccc(NC(=O)c2ccnc(C(F)(F)F)c2)cc1-c1cc(OCCO)nc(C2(C(F)F)COC2)c1 [Example 58, N-(3-(2-(3-(difluoromethyl)oxetan-3-yl)-6-(2-hydroxyethoxy)pyridin-4-yl)-4-methylphenyl)-2-(trifluoromethyl)isonicotin-amide]
0.3	CCOc1ncc(-c2cc(NC(=O)c3cnnc(C(F)(F)F)c3)cnc2C)cc1C1CCOCC1 [Example 163, N-(6′-ethoxy-2-methyl-5′-(tetrahydro-2H-pyran-4-yl)-[3,3′-bipyridin]-5-yl)-6-(trifluoromethyl) pyridazine-4-carboxamide]
3.32	Cc1ccc(NC(=O)c2ccnc(C(C)(C)F)c2)cc1-c1cc(C2(O)COC2)cc(C2(F)COC2)c1 [Example 137, N-(3′-(3-fluorooxetan-3-yl)-5′-(3-hydroxyoxetan-3-yl)-6-methyl-[1,1′-biphenyl]-3-yl)-2-(2-fluoropropan-2-yl)isonicotinamide]
